How the values were obtained:
Test in all cases: relative viability (nuclei count vs DMSO), 5 days (fraction); higher = more cells survive
NCI-H358 = tested on: NCI-H358
Procedure, shortened: (§1)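 Lung cancer cell lines in 1536-well plates got either a single drug or a fixed anchor-drug dose together with five library-drug doses (not always all listed) in √10 steps, by pin tool, on the day after seeding. Nuclei were counted after 5 days, and relative viability is the treated-to-vehicle ratio of nuclei counts. Values are medians of duplicate plates.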

NCI-H1975 = tested on: NCI-H1975
Procedure, shortened: as §1

H3255 = tested on: H3255
Procedure, shortened: as §1

ABC-1 = tested on: ABC-1
Procedure, shortened: as §1

NCI-H727 = tested on: NCI-H727
Procedure, shortened: as §1

NCI-H1437 = tested on: NCI-H1437
Procedure, shortened: as §1

EKVX = tested on: EKVX
Procedure, shortened: as §1

HCC-44 = tested on: HCC-44
Procedure, shortened: as §1

COR-L 105 = tested on: COR-L 105
Procedure, shortened: as §1

NCI-H1792 = tested on: NCI-H1792
Procedure, shortened: as §1

LCLC-103H = tested on: LCLC-103H
Procedure, shortened: as §1

NCI-H1651 = tested on: NCI-H1651
Procedure, shortened: as §1

EPLC-272H = tested on: EPLC-272H
Procedure, shortened: as §1

NCI-H661 = tested on: NCI-H661
Procedure, shortened: as §1

HCC-15 = tested on: HCC-15
Procedure, shortened: as §1

COR-L23 = tested on: COR-L23
Procedure, shortened: as §1

HCC-827 = tested on: HCC-827
Procedure, shortened: as §1

NCI-H1650 = tested on: NCI-H1650
Procedure, shortened: as §1

NCI-H647 = tested on: NCI-H647
Procedure, shortened: as §1

UMC-11 = tested on: UMC-11
Procedure, shortened: as §1

NCI-H2087 = tested on: NCI-H2087
Procedure, shortened: as §1

201T = tested on: 201T
Procedure, shortened: as §1

NCI-H520 = tested on: NCI-H520
Procedure, shortened: as §1

In the case of Cc1cnc(-c2cnc(NCCNc3ccc(C#N)cn3)nc2-c2ccc(Cl)cc2Cl)[nH]1 + CC(=O)c1c(C)c2cnc(Nc3ccc(N4CCNCC4)cn3)nc2n(C2CCCC2)c1=O [Palbociclib] (partner 0.5 µM), the relative viability (NCI-H358; first compound 0.08 µM) is reported as 0.13, the relative viability (NCI-H358; first compound 0.253 µM) is reported as 0.14 and the relative viability (NCI-H358; first compound 0.8 µM) is reported as 0.134. It also gave a relative viability (NCI-H358; first compound 2.53 µM) of 0.143, a relative viability (NCI-H1975; first compound 0.08 µM) of 0.69 and a relative viability (NCI-H1975; first compound 0.253 µM) of 0.519. It also gave a relative viability (NCI-H1975; first compound 0.8 µM) of 0.487, a relative viability (NCI-H1975; first compound 2.53 µM) of 0.301 and a relative viability (H3255; first compound 0.08 µM) of 0.299. The relative viability (H3255; first compound 0.253 µM) was 0.34, the relative viability (H3255; first compound 0.8 µM) was 0.317 and the relative viability (H3255; first compound 2.53 µM) was 0.306. For the same molecule, the relative viability (ABC-1; first compound 0.08 µM) was 0.903, the relative viability (ABC-1; first compound 0.253 µM) was 0.338 and the relative viability (ABC-1; first compound 0.8 µM) was 0.54. The relative viability (ABC-1; first compound 2.53 µM) was 0.675, the relative viability (NCI-H727; first compound 0.08 µM) was 0.659 and the relative viability (NCI-H727; first compound 0.253 µM) was 0.637. For the same molecule, the relative viability (NCI-H727; first compound 0.8 µM) was 0.644, the relative viability (NCI-H727; first compound 2.53 µM) was 0.663 and the relative viability (NCI-H1437; first compound 0.08 µM) was 0.355. For the same molecule, the relative viability (NCI-H1437; first compound 0.253 µM) was 0.303, the relative viability (NCI-H1437; first compound 0.8 µM) was 0.281 and the relative viability (NCI-H1437; first compound 2.53 µM) was 0.285. For the same molecule, the relative viability (EKVX; first compound 0.08 µM) was 0.493, the relative viability (EKVX; first compound 0.253 µM) was 0.316 and the relative viability (EKVX; first compound 0.8 µM) was 0.417. The relative viability (EKVX; first compound 2.53 µM) was 0.444, the relative viability (HCC-44; first compound 0.08 µM) was 0.957 and the relative viability (HCC-44; first compound 0.253 µM) was 0.931. It also gave a relative viability (HCC-44; first compound 0.8 µM) of 0.97, a relative viability (HCC-44; first compound 2.53 µM) of 0.985 and a relative viability (COR-L 105; first compound 0.08 µM) of 0.397. It also gave a relative viability (COR-L 105; first compound 0.253 µM) of 0.401, a relative viability (COR-L 105; first compound 0.8 µM) of 0.382 and a relative viability (COR-L 105; first compound 2.53 µM) of 0.404. It also gave a relative viability (NCI-H1792; first compound 0.08 µM) of 0.677, a relative viability (NCI-H1792; first compound 0.253 µM) of 0.551 and a relative viability (NCI-H1792; first compound 0.8 µM) of 0.646. For the same molecule, the relative viability (NCI-H1792; first compound 2.53 µM) was 0.625, the relative viability (LCLC-103H; first compound 0.08 µM) was 0.516 and the relative viability (LCLC-103H; first compound 0.253 µM) was 0.475. The relative viability (LCLC-103H; first compound 0.8 µM) was 0.426, the relative viability (LCLC-103H; first compound 2.53 µM) was 0.507 and the relative viability (NCI-H1651; first compound 0.08 µM) was 0.58. The relative viability (NCI-H1651; first compound 0.253 µM) was 0.468, the relative viability (NCI-H1651; first compound 0.8 µM) was 0.504 and the relative viability (NCI-H1651; first compound 2.53 µM) was 0.549. For the same molecule, the relative viability (EPLC-272H; first compound 0.08 µM) was 0.345, the relative viability (EPLC-272H; first compound 0.253 µM) was 0.323 and the relative viability (EPLC-272H; first compound 0.8 µM) was 0.309. For the same molecule, the relative viability (EPLC-272H; first compound 2.53 µM) was 0.373, the relative viability (NCI-H661; first compound 0.08 µM) was 0.44 and the relative viability (NCI-H661; first compound 0.253 µM) was 0.433. The relative viability (NCI-H661; first compound 0.8 µM) was 0.432, the relative viability (NCI-H661; first compound 2.53 µM) was 0.506 and the relative viability (HCC-15; first compound 0.08 µM) was 0.689. It also gave a relative viability (HCC-15; first compound 0.253 µM) of 0.543, a relative viability (HCC-15; first compound 0.8 µM) of 0.69 and a relative viability (HCC-15; first compound 2.53 µM) of 0.724. It also gave a relative viability (COR-L23; first compound 0.08 µM) of 0.328, a relative viability (COR-L23; first compound 0.253 µM) of 0.266 and a relative viability (COR-L23; first compound 0.8 µM) of 0.272. For the same molecule, the relative viability (COR-L23; first compound 2.53 µM) was 0.264, the relative viability (HCC-827; first compound 0.08 µM) was 0.48 and the relative viability (HCC-827; first compound 0.253 µM) was 0.371. It also gave a relative viability (HCC-827; first compound 0.8 µM) of 0.484, a relative viability (HCC-827; first compound 2.53 µM) of 0.387 and a relative viability (NCI-H1650; first compound 0.08 µM) of 0.368. The relative viability (NCI-H1650; first compound 0.253 µM) was 0.306, the relative viability (NCI-H1650; first compound 0.8 µM) was 0.306 and the relative viability (NCI-H1650; first compound 2.53 µM) was 0.258. It also gave a relative viability (NCI-H647; first compound 0.08 µM) of 0.434, a relative viability (NCI-H647; first compound 0.253 µM) of 0.303 and a relative viability (NCI-H647; first compound 0.8 µM) of 0.419. It also gave a relative viability (NCI-H647; first compound 2.53 µM) of 0.393, a relative viability (UMC-11; first compound 0.08 µM) of 0.354 and a relative viability (UMC-11; first compound 0.253 µM) of 0.346. The relative viability (UMC-11; first compound 0.8 µM) was 0.364, the relative viability (UMC-11; first compound 2.53 µM) was 0.401 and the relative viability (NCI-H2087; first compound 0.08 µM) was 0.235. For the same molecule, the relative viability (NCI-H2087; first compound 0.8 µM) was 0.227, the relative viability (NCI-H2087; first compound 2.53 µM) was 0.146 and the relative viability (201T; first compound 0.08 µM) was 0.384. It also gave a relative viability (201T; first compound 0.8 µM) of 0.362, a relative viability (201T; first compound 2.53 µM) of 0.38 and a relative viability (NCI-H520; first compound 0.08 µM) of 0.332. For the same molecule, the relative viability (NCI-H520; first compound 0.253 µM) was 0.202, the relative viability (NCI-H520; first compound 0.8 µM) was 0.224 and the relative viability (NCI-H520; first compound 2.53 µM) was 0.265.
